Source: the supplement of paper PMC4862054

Each compound was assayed on CAL-148 (assay: normalised response (% of control), CellTiter-Glo; higher = more viable cells (100 = DMSO, 0 = benzethonium chloride kill control)). Details: incubation time: 72 h.
Procedure, shortened: (§1)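 Normalised signals at single concentrations make up the values. They come from breast cancer cell lines seeded (20 µl suspension) into 384-well plates with compound at 5 concentrations in 10-fold steps over a compound-specific 10,000-fold range, incubated 72 h, and read for CellTox Green fluorescence then CellTiter-Glo luminescence. Each plate was normalised to 0.1 % DMSO (100) and a positive kill control (0).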

| Structure (SMILES) | normalised response [%] |
| --- | --- |
| O=C(CCBr)N1CCN(C(=O)CCBr)CC1 [Pipobroman] (10 nM) | 105 |
| c1cc(CN2CCCNCCNCCCNCC2)ccc1CN1CCCNCCNCCCNCC1 [Plerixafor] (1 nM) | 98.5 |
| C[C@]12C=CC(=O)C=C1CC[C@@H]1[C@@H]2[C@@H](O)C[C@@]2(C)[C@H]1CC[C@]2(O)C(=O)CO [Prednisolone] (1 nM) | 110 |
| C[C@]12C=CC(=O)C=C1CC[C@@H]1[C@@H]2[C@@H](O)C[C@@]2(C)[C@H]1CC[C@]2(O)C(=O)CO [Prednisolone] (10 nM) | 113 |
| Cn1cc(CNCC2CCN(c3ncc(C(=O)NO)cn3)CC2)c2ccccc21 [Quisinostat] (0.1 nM) | 109 |
| Cn1cc(CNCC2CCN(c3ncc(C(=O)NO)cn3)CC2)c2ccccc21 [Quisinostat] (1 nM) | 110 |

These compounds were tested on HCC1937 in the same assay as above. Details: incubation time: 72 h.
Procedure, shortened: as §1

| Structure (SMILES) | normalised response [%] |
| --- | --- |
| Cc1c(CN2CCN(C(=O)[C@H](C)O)CC2)sc2c(N3CCOCC3)nc(-c3cnc(N)nc3)nc12 [GDC-0980] (1 nM) | 98.9 |
| Cc1c(CN2CCN(C(=O)[C@H](C)O)CC2)sc2c(N3CCOCC3)nc(-c3cnc(N)nc3)nc12 [GDC-0980] (10 nM) | 107 |
| Cc1cccc(-c2nn3c(c2-c2ccnc4ccc(C(N)=O)cc24)CCC3)n1 [Galunisertib] (0.1 nM) | 104 |
| Nc1cccc2c1CN(C1CCC(=O)NC1=O)C2=O (stereo not given) [Lenalidomide] (1 nM) | 94 |
| Nc1cccc2c1CN(C1CCC(=O)NC1=O)C2=O (stereo not given) [Lenalidomide] (10 nM) | 91.2 |
| C[C@]12O[C@H](C[C@]1(O)CO)n1c3ccccc3c3c4c(c5c6ccccc6n2c5c31)CNC4=O [Lestaurtinib] (0.1 nM) | 95 |
| O=C1c2c(O)ccc(O)c2C(=O)c2c(NCCNCCO)ccc(NCCNCCO)c21 [Mitoxantrone] (0.1 nM) | 98.1 |
| O=C1c2c(O)ccc(O)c2C(=O)c2c(NCCNCCO)ccc(NCCNCCO)c21 [Mitoxantrone] (1 nM) | 98.7 |
| Nc1ccccc1NC(=O)c1ccc(CNc2nccc(-c3cccnc3)n2)cc1 [Mocetinostat] (1 nM) | 102 |
| COc1nc(N)nc2c1ncn2[C@@H]1O[C@H](CO)[C@@H](O)[C@@H]1O [Nelarabine] (1 nM) | 88.8 |
| COc1nc(N)nc2c1ncn2[C@@H]1O[C@H](CO)[C@@H](O)[C@@H]1O [Nelarabine] (10 nM) | 102 |
| Cc1ccc(Nc2nccc(N(C)c3ccc4c(C)n(C)nc4c3)n2)cc1S(N)(=O)=O [Pazopanib] (1 nM) | 96.2 |
| CS(=O)(=O)N1CCN(Cc2cc3nc(-c4cccc5[nH]ncc45)nc(N4CCOCC4)c3s2)CC1 [Pictilisib] (10 nM) | 99.7 |
| O=C(NC[C@H](O)CO)c1ccncc1Nc1ccc(I)cc1F [Pimasertib] (1 nM) | 100 |
| O=C(CCBr)N1CCN(C(=O)CCBr)CC1 [Pipobroman] (1 nM) | 104 |
| O=C(CCBr)N1CCN(C(=O)CCBr)CC1 [Pipobroman] (10 nM) | 104 |
| c1cc(CN2CCCNCCNCCCNCC2)ccc1CN1CCCNCCNCCCNCC1 [Plerixafor] (1 nM) | 95.9 |
| C[C@]12C=CC(=O)C=C1CC[C@@H]1[C@@H]2[C@@H](O)C[C@@]2(C)[C@H]1CC[C@]2(O)C(=O)CO [Prednisolone] (1 nM) | 96.9 |
| C[C@]12C=CC(=O)C=C1CC[C@@H]1[C@@H]2[C@@H](O)C[C@@]2(C)[C@H]1CC[C@]2(O)C(=O)CO [Prednisolone] (10 nM) | 100 |
| Cn1cc(CNCC2CCN(c3ncc(C(=O)NO)cn3)CC2)c2ccccc21 [Quisinostat] (0.1 nM) | 99.6 |
| Cn1cc(CNCC2CCN(c3ncc(C(=O)NO)cn3)CC2)c2ccccc21 [Quisinostat] (1 nM) | 97.1 |

Each compound was assayed on HCC1599 in the same assay as above. Details: incubation time: 72 h.
Procedure, shortened: as §1

| Structure (SMILES) | normalised response [%] |
| --- | --- |
| Cc1c(CN2CCN(C(=O)[C@H](C)O)CC2)sc2c(N3CCOCC3)nc(-c3cnc(N)nc3)nc12 [GDC-0980] (1 nM) | 110 |
| Cc1c(CN2CCN(C(=O)[C@H](C)O)CC2)sc2c(N3CCOCC3)nc(-c3cnc(N)nc3)nc12 [GDC-0980] (10 nM) | 105 |
| Cc1cccc(-c2nn3c(c2-c2ccnc4ccc(C(N)=O)cc24)CCC3)n1 [Galunisertib] (0.1 nM) | 107 |
| Nc1cccc2c1CN(C1CCC(=O)NC1=O)C2=O (stereo not given) [Lenalidomide] (1 nM) | 106 |
| Nc1cccc2c1CN(C1CCC(=O)NC1=O)C2=O (stereo not given) [Lenalidomide] (10 nM) | 111 |
| C[C@]12O[C@H](C[C@]1(O)CO)n1c3ccccc3c3c4c(c5c6ccccc6n2c5c31)CNC4=O [Lestaurtinib] (0.1 nM) | 92.7 |
| O=C1c2c(O)ccc(O)c2C(=O)c2c(NCCNCCO)ccc(NCCNCCO)c21 [Mitoxantrone] (0.1 nM) | 95.3 |
| O=C1c2c(O)ccc(O)c2C(=O)c2c(NCCNCCO)ccc(NCCNCCO)c21 [Mitoxantrone] (1 nM) | 96.7 |
| Nc1ccccc1NC(=O)c1ccc(CNc2nccc(-c3cccnc3)n2)cc1 [Mocetinostat] (1 nM) | 91.5 |
| COc1nc(N)nc2c1ncn2[C@@H]1O[C@H](CO)[C@@H](O)[C@@H]1O [Nelarabine] (1 nM) | 105 |
| COc1nc(N)nc2c1ncn2[C@@H]1O[C@H](CO)[C@@H](O)[C@@H]1O [Nelarabine] (10 nM) | 88.6 |
| Cc1ccc(Nc2nccc(N(C)c3ccc4c(C)n(C)nc4c3)n2)cc1S(N)(=O)=O [Pazopanib] (1 nM) | 100 |
| CS(=O)(=O)N1CCN(Cc2cc3nc(-c4cccc5[nH]ncc45)nc(N4CCOCC4)c3s2)CC1 [Pictilisib] (10 nM) | 102 |
| O=C(NC[C@H](O)CO)c1ccncc1Nc1ccc(I)cc1F [Pimasertib] (1 nM) | 106 |
| O=C(CCBr)N1CCN(C(=O)CCBr)CC1 [Pipobroman] (1 nM) | 105 |
| O=C(CCBr)N1CCN(C(=O)CCBr)CC1 [Pipobroman] (10 nM) | 117 |
| c1cc(CN2CCCNCCNCCCNCC2)ccc1CN1CCCNCCNCCCNCC1 [Plerixafor] (1 nM) | 105 |
| C[C@]12C=CC(=O)C=C1CC[C@@H]1[C@@H]2[C@@H](O)C[C@@]2(C)[C@H]1CC[C@]2(O)C(=O)CO [Prednisolone] (1 nM) | 102 |
| C[C@]12C=CC(=O)C=C1CC[C@@H]1[C@@H]2[C@@H](O)C[C@@]2(C)[C@H]1CC[C@]2(O)C(=O)CO [Prednisolone] (10 nM) | 97.6 |
| Cn1cc(CNCC2CCN(c3ncc(C(=O)NO)cn3)CC2)c2ccccc21 [Quisinostat] (0.1 nM) | 92.9 |
| Cn1cc(CNCC2CCN(c3ncc(C(=O)NO)cn3)CC2)c2ccccc21 [Quisinostat] (1 nM) | 110 |

Each compound was assayed on BT-549 in the same assay as above. Details: incubation time: 72 h.
Procedure, shortened: as §1

| Structure (SMILES) | normalised response [%] |
| --- | --- |
| Cc1c(CN2CCN(C(=O)[C@H](C)O)CC2)sc2c(N3CCOCC3)nc(-c3cnc(N)nc3)nc12 [GDC-0980] (1 nM) | 105 |
| Cc1c(CN2CCN(C(=O)[C@H](C)O)CC2)sc2c(N3CCOCC3)nc(-c3cnc(N)nc3)nc12 [GDC-0980] (10 nM) | 101 |
